Experimental data from PubChem BioAssay (NCI).
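Compound exposure: 48 hours, 5 concentrations, 96-well plates. GI50 marks 50% less growth. TGI marks complete inhibition of growth.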

Experiments:
Test in all cases: inhibition of tumour cell growth, NCI panel, 48 h
HCC-2998 colon = test system: HCC-2998 colon
MOLT-4 leukemia = test system: MOLT-4 leukemia
MALME-3M melanoma = test system: MALME-3M melanoma
SNB-75 CNS = test system: SNB-75 CNS
T-47D breast = test system: T-47D breast
HOP-62 NSCLC = test system: HOP-62 NSCLC
DU-145 prostate = test system: DU-145 prostate
K-562 leukemia = test system: K-562 leukemia
HL-60(TB) leukemia = test system: HL-60(TB) leukemia
OVCAR-5 ovarian = test system: OVCAR-5 ovarian
SW-620 colon = test system: SW-620 colon
HS 578T breast = test system: HS 578T breast
OVCAR-4 ovarian = test system: OVCAR-4 ovarian
RXF 393 renal = test system: RXF 393 renal
NCI-H226 lung = test system: NCI-H226 lung
OVCAR-8 ovarian = test system: OVCAR-8 ovarian
MCF7 breast = test system: MCF7 breast
IGROV1 ovarian = test system: IGROV1 ovarian
RPMI-8226 leukemia = test system: RPMI-8226 leukemia
LOX IMVI melanoma = test system: LOX IMVI melanoma
CAKI-1 renal = test system: CAKI-1 renal
KM12 colon = test system: KM12 colon
NCI-H522 lung = test system: NCI-H522 lung
SF-539 CNS = test system: SF-539 CNS
A549 NSCLC = test system: A549 NSCLC
NCI-H460 lung = test system: NCI-H460 lung
HOP-92 NSCLC = test system: HOP-92 NSCLC
HCT-116 colon = test system: HCT-116 colon
SK-MEL-28 melanoma = test system: SK-MEL-28 melanoma
SK-MEL-5 melanoma = test system: SK-MEL-5 melanoma
NCI/ADR-RES ovarian = test system: NCI/ADR-RES ovarian
U251 CNS = test system: U251 CNS
OVCAR-3 ovarian = test system: OVCAR-3 ovarian
M14 melanoma = test system: M14 melanoma
COLO 205 colon = test system: COLO 205 colon
NCI-H23 lung = test system: NCI-H23 lung
TK-10 renal = test system: TK-10 renal
SF-295 CNS = test system: SF-295 CNS
786-0 renal = test system: 786-0 renal
EKVX NSCLC = test system: EKVX NSCLC
SF-268 CNS = test system: SF-268 CNS
PC-3 prostate = test system: PC-3 prostate
HT29 colon = test system: HT29 colon
MDA-MB-468 breast = test system: MDA-MB-468 breast
CCRF-CEM leukemia = test system: CCRF-CEM leukemia
A498 renal = test system: A498 renal
UO-31 renal = test system: UO-31 renal
MDA-MB-435 = test system: MDA-MB-435
ACHN renal = test system: ACHN renal
UACC-257 melanoma = test system: UACC-257 melanoma
SK-MEL-2 melanoma = test system: SK-MEL-2 melanoma
SK-OV-3 ovarian = test system: SK-OV-3 ovarian
HCT-15 colon = test system: HCT-15 colon
BT-549 breast = test system: BT-549 breast

What does the source list for `CN(C)c1nc(NCCNS(=O)(=O)c2ccc(C3=Nc4c(N)nc(N)nc4NC(c4ccc(C(F)(F)F)cc4)C3)cc2)nc(Nc2ccc(F)cc2)n1` (stereo not drawn)?
GI50 (HCC-2998 colon): 4.72 µM; TGI (HCC-2998 colon): 25.9 µM; GI50 (MOLT-4 leukemia): 2.74 µM; TGI (MOLT-4 leukemia): > 86 µM; GI50 (MALME-3M melanoma): 11.3 µM; TGI (MALME-3M melanoma): 24.2 µM; GI50 (SNB-75 CNS): 2.13 µM; TGI (SNB-75 CNS): > 86 µM; GI50 (T-47D breast): 12 µM; TGI (T-47D breast): > 86 µM; GI50 (HOP-62 NSCLC): 31.4 µM; TGI (HOP-62 NSCLC): > 86 µM; GI50 (DU-145 prostate): 38.5 µM; TGI (DU-145 prostate): > 86 µM; GI50 (K-562 leukemia): 3.51 µM; TGI (K-562 leukemia): > 86 µM; GI50 (HL-60(TB) leukemia): 4.07 µM; TGI (HL-60(TB) leukemia): > 86 µM; GI50 (OVCAR-5 ovarian): 19.9 µM; TGI (OVCAR-5 ovarian): > 86 µM; GI50 (SW-620 colon): 14.3 µM; TGI (SW-620 colon): > 86 µM; GI50 (HS 578T breast): 9.03 µM; TGI (HS 578T breast): > 86 µM; GI50 (OVCAR-4 ovarian): 25 µM; TGI (OVCAR-4 ovarian): > 86 µM; GI50 (RXF 393 renal): 2.57 µM; TGI (RXF 393 renal): 18.8 µM; GI50 (NCI-H226 lung): 37.3 µM; TGI (NCI-H226 lung): > 86 µM; GI50 (OVCAR-8 ovarian): 26.1 µM; TGI (OVCAR-8 ovarian): > 86 µM; GI50 (MCF7 breast): 2.87 µM; TGI (MCF7 breast): 21 µM; GI50 (IGROV1 ovarian): 11.2 µM; TGI (IGROV1 ovarian): > 86 µM; GI50 (RPMI-8226 leukemia): 4 µM; TGI (RPMI-8226 leukemia): > 86 µM; GI50 (LOX IMVI melanoma): 3.14 µM; TGI (LOX IMVI melanoma): 12 µM; GI50 (CAKI-1 renal): 36.8 µM; TGI (CAKI-1 renal): > 86 µM; GI50 (KM12 colon): 6.14 µM; TGI (KM12 colon): > 86 µM; GI50 (NCI-H522 lung): 17.8 µM; TGI (NCI-H522 lung): 44.8 µM; GI50 (SF-539 CNS): 6.22 µM; TGI (SF-539 CNS): 24.7 µM; GI50 (A549 NSCLC): 55 µM; TGI (A549 NSCLC): > 86 µM; GI50 (NCI-H460 lung): 5.49 µM; TGI (NCI-H460 lung): > 86 µM; GI50 (HOP-92 NSCLC): 2.99 µM; TGI (HOP-92 NSCLC): 16.9 µM; GI50 (HCT-116 colon): 5.1 µM; TGI (HCT-116 colon): > 86 µM; GI50 (SK-MEL-28 melanoma): 15 µM; TGI (SK-MEL-28 melanoma): > 86 µM; GI50 (SK-MEL-5 melanoma): 10.4 µM; TGI (SK-MEL-5 melanoma): 21.3 µM; GI50 (NCI/ADR-RES ovarian): > 86 µM; TGI (NCI/ADR-RES ovarian): > 86 µM; GI50 (U251 CNS): 5.52 µM; TGI (U251 CNS): > 86 µM; GI50 (OVCAR-3 ovarian): 11.9 µM; TGI (OVCAR-3 ovarian): > 86 µM; GI50 (M14 melanoma): 7.87 µM; TGI (M14 melanoma): > 86 µM; GI50 (COLO 205 colon): 9.73 µM; TGI (COLO 205 colon): 21.8 µM; GI50 (NCI-H23 lung): 27.7 µM; TGI (NCI-H23 lung): > 86 µM; GI50 (TK-10 renal): > 86 µM; TGI (TK-10 renal): > 86 µM; GI50 (SF-295 CNS): 12.9 µM; TGI (SF-295 CNS): > 86 µM; GI50 (786-0 renal): 10.1 µM; TGI (786-0 renal): 39.8 µM; GI50 (EKVX NSCLC): 5.52 µM; TGI (EKVX NSCLC): > 86 µM; GI50 (SF-268 CNS): 11.2 µM; TGI (SF-268 CNS): > 86 µM; GI50 (PC-3 prostate): 4.37 µM; TGI (PC-3 prostate): > 86 µM; GI50 (HT29 colon): 4.88 µM; TGI (HT29 colon): 18.3 µM; GI50 (MDA-MB-468 breast): 2.67 µM; TGI (MDA-MB-468 breast): 11.7 µM; GI50 (CCRF-CEM leukemia): 3.24 µM; TGI (CCRF-CEM leukemia): > 86 µM; GI50 (A498 renal): 22.2 µM; TGI (A498 renal): 77.4 µM; GI50 (UO-31 renal): > 86 µM; TGI (UO-31 renal): > 86 µM; GI50 (MDA-MB-435): 9.13 µM; TGI (MDA-MB-435): > 86 µM; GI50 (ACHN renal): > 86 µM; TGI (ACHN renal): > 86 µM; GI50 (UACC-257 melanoma): 23.3 µM; TGI (UACC-257 melanoma): > 86 µM; GI50 (SK-MEL-2 melanoma): 10.8 µM; TGI (SK-MEL-2 melanoma): 24.7 µM; GI50 (SK-OV-3 ovarian): > 86 µM; TGI (SK-OV-3 ovarian): > 86 µM; GI50 (HCT-15 colon): 55.1 µM; TGI (HCT-15 colon): > 86 µM; GI50 (BT-549 breast): 11.8 µM; TGI (BT-549 breast): 32.6 µM
